ChEMBL document CHEMBL1914451, “The cephalostatins. 21. Synthesis of bis-steroidal pyrazine rhamnosides (1)” (2011)
Values after ≈ are worked out from the molar mass of the structure shown. One block for each molecule: values may come before it. Active and inactive are the calls of the source. No cut-off for these calls is given here.

Legend:
P388 = assay: Antiproliferative activity against mouse P388 cells; type: functional; conditions: read-out: ED50 (the source's name)
SF-268 = assay: Growth inhibition of human SF268 cells; type: functional
Candida albicans = assay: Antifungal activity against Candida albicans ATCC 90028 at 64 ug/ml by broth microdilution assay; type: functional, organism-based
Enterobacter cloacae = assay: Antibacterial activity against Enterobacter cloacae ATCC 13047 at 64 ug/ml by broth microdilution assay; type: functional, organism-based
MCF7 = assay: Growth inhibition of human MCF7 cells; type: functional
Neisseria gonorrhoeae = assay: Antibacterial activity against Neisseria gonorrhoeae ATCC 49226 at 64 ug/ml by broth microdilution assay; type: functional, organism-based
Cryptococcus neoformans = assay: Antifungal activity against Cryptococcus neoformans ATCC 90112 at 64 ug/ml by broth microdilution assay; type: functional, organism-based
Enterococcus faecalis [1] = assay: Antibacterial activity against Enterococcus faecalis ATCC 29212 at 64 ug/ml by broth microdilution assay; type: functional, organism-based
Escherichia coli = assay: Antibacterial activity against Escherichia coli ATCC 25922 at 64 ug/ml by broth microdilution assay; type: functional, organism-based
Streptococcus pneumoniae = assay: Antibacterial activity against Streptococcus pneumoniae ATCC 6303 at 64 ug/ml by broth microdilution assay; type: functional, organism-based
Micrococcus luteus = assay: Antibacterial activity against Micrococcus luteus Presque Isle 456 at 64 ug/ml by broth microdilution assay; type: functional, organism-based
BXPC-3 = assay: Growth inhibition of human BxPC3 cells; type: functional
[2] = test system: Stenotrophomonas maltophilia; assay: Antibacterial activity against Stenotrophomonas maltophilia ATCC 13637 at 64 ug/ml by broth microdilution assay; type: functional, organism-based
DU-145 = assay: Growth inhibition of human DU145 cells; type: functional
Staphylococcus aureus = assay: Antibacterial activity against Staphylococcus aureus ATCC 29213 at 64 ug/ml by broth microdilution assay; type: functional, organism-based
KM-20L2 = assay: Growth inhibition of human KM20L2 cells; type: functional
NCI-H460 = assay: Growth inhibition of human NCI-H460 cells; type: functional
Enterococcus faecalis [3] = assay: Antibacterial activity against Enterococcus faecalis ATCC 29212 by broth microdilution assay; type: functional

Structure (SMILES): CC(=O)O[C@@H]1[C@@H](OC(C)=O)[C@H](C)O[C@H]2OC(C)(OC/C=C3\CC[C@H]4[C@@H]5CCC6=CC(=O)CC[C@]6(C)[C@H]5[C@@H](O)C[C@]34C)O[C@@H]21 (stereo partly specified)
EC50 (P388): 9.5 µg/mL (≈ 15.8 µM)

Structure (SMILES): C[C@@H]1O[C@@H](OC/C=C2\CC[C@H]3[C@@H]4CCC5=CC(=O)CC[C@]5(C)[C@H]4[C@@H](O)C[C@]23C)[C@H](O)[C@H](O)[C@H]1O
EC50 (P388): > 100 µg/mL

Structure (SMILES): CC(=O)OC/C=C1\CC[C@H]2[C@@H]3CCC4=CC(=O)CC[C@]4(C)[C@H]3[C@@H](O)C[C@]12C
EC50 (P388): > 100 µg/mL

Structure (SMILES): CC(=O)OC/C=C1\CC[C@H]2[C@@H]3CC[C@H]4CC(=O)[C@H](N=[N+]=[N-])C[C@]4(C)[C@H]3[C@@H](O)C[C@]12C
EC50 (P388): 12 µg/mL (≈ 28.9 µM)

Structure (SMILES): C=C[C@]1(C)CCC2=C1C[C@H](O)[C@H]1[C@H]2CC[C@H]2Cc3nc4c(nc3C[C@@]21C)C[C@@H]1CC[C@H]2C3=C(C[C@H](O)[C@@H]2[C@@]1(C)C4)[C@](C)(C=C)CC3
EC50 (P388): > 10 µg/mL

Structure (SMILES): CC(=O)O[C@@H]1[C@@H](OC(C)=O)[C@H](C)O[C@@H](OC/C=C2\CC[C@H]3[C@@H]4CCC5=CC(=O)CC[C@]5(C)[C@H]4[C@@H](O)C[C@]23C)[C@@H]1OC(C)=O
EC50 (P388): > 10 µg/mL

Structure (SMILES): CC(=O)OC/C=C1\CC[C@H]2[C@@H]3CC[C@H]4CC(=O)[C@H](Br)C[C@]4(C)[C@H]3[C@@H](O)C[C@]12C
EC50 (P388): 6.6 µg/mL (≈ 14.6 µM)

Structure (SMILES): CC(=O)OC/C=C1\CC[C@H]2[C@@H]3CC[C@H]4CC(=O)CC[C@]4(C)[C@H]3[C@@H](O)C[C@]12C
EC50 (P388): 16.6 µg/mL (≈ 44.3 µM)

Second part, led by results:

GI50 (MCF7): 2.8 µg/mL (≈ 2.71 µM) | GI50 (BXPC-3): 2.1 µg/mL (≈ 2.03 µM) | GI50 (DU-145): 3 µg/mL (≈ 2.9 µM) | EC50 (P388): > 10 µg/mL | GI50 (NCI-H460): 3.8 µg/mL (≈ 3.68 µM)
Structure (SMILES): C[C@@H]1O[C@H]2OC(C)(OC/C=C3\CC[C@H]4[C@@H]5CC[C@H]6Cc7nc8c(nc7C[C@]6(C)[C@H]5[C@@H](O)C[C@]34C)C[C@@H]3CC[C@@H]4[C@H]([C@@H](O)C[C@]5(C)/C(=C/COC6(C)O[C@@H]7O[C@@H](C)[C@H](O)[C@@H](O)[C@H]7O6)CC[C@@H]45)[C@@]3(C)C8)O[C@@H]2[C@H](O)[C@H]1O (stereo partly specified)
GI50 (SF-268): 3 µg/mL (≈ 2.9 µM) | Activity (Candida albicans): inactive | Activity (Enterobacter cloacae): inactive | Activity (Neisseria gonorrhoeae): inactive | Activity (Cryptococcus neoformans): inactive | Activity (Enterococcus faecalis [1]): inactive | Activity (Escherichia coli): inactive | Activity (Streptococcus pneumoniae): inactive | Activity (Micrococcus luteus): inactive | Activity [2]: inactive | Activity (Staphylococcus aureus): inactive | GI50 (KM-20L2): 3.3 µg/mL (≈ 3.19 µM)

EC50 (P388): > 10 µg/mL
Structure (SMILES): CC(=O)O[C@@H]1[C@@H](OC(C)=O)[C@H](C)O[C@@H](OC/C=C2\CC[C@H]3[C@@H]4CC[C@H]5Cc6nc7c(nc6C[C@]5(C)[C@H]4[C@@H](O)C[C@]23C)C[C@@H]2CC[C@@H]3[C@H]([C@@H](O)C[C@]4(C)/C(=C/CO[C@H]5O[C@@H](C)[C@H](OC(C)=O)[C@@H](OC(C)=O)[C@H]5OC(C)=O)CC[C@@H]34)[C@@]2(C)C7)[C@@H]1OC(C)=O

EC50 (P388): > 10 µg/mL
Structure (SMILES): CC(=O)O[C@@H]1[C@@H](OC(C)=O)[C@H](C)O[C@H]2OC(C)(OC/C=C3\CC[C@H]4[C@@H]5CC[C@H]6Cc7nc8c(nc7C[C@]6(C)[C@H]5[C@@H](O)C[C@]34C)C[C@@H]3CC[C@@H]4[C@H]([C@@H](O)C[C@]5(C)/C(=C/COC6(C)O[C@@H]7O[C@@H](C)[C@H](OC(C)=O)[C@@H](OC(C)=O)[C@H]7O6)CC[C@@H]45)[C@@]3(C)C8)O[C@@H]21 (stereo partly specified)

MIC (Enterococcus faecalis [3]): 32 µg/mL (≈ 43.2 µM) | EC50 (P388): 77.2 µg/mL (≈ 104 µM)
Structure (SMILES): CC(=O)OC/C=C1\CC[C@H]2[C@@H]3CC[C@H]4Cc5nc6c(nc5C[C@]4(C)[C@H]3[C@@H](O)C[C@]12C)C[C@@H]1CC[C@@H]2[C@H]([C@@H](O)C[C@]3(C)/C(=C/COC(C)=O)CC[C@@H]23)[C@@]1(C)C6

EC50 (P388): > 10 µg/mL
Structure (SMILES): CC(=O)O[C@@H]1[C@@H](OC(C)=O)[C@H](C)O[C@@H](OC/C=C2\CC[C@H]3[C@@H]4CC[C@H]5Cc6nc7c(nc6C[C@]5(C)[C@H]4[C@@H](O)C[C@]23C)C[C@@H]2CC[C@@H]3[C@H]([C@@H](O)C[C@]4(C)/C(=C/CO[C@@H]5O[C@@H](C)[C@H](OC(C)=O)[C@@H](OC(C)=O)[C@H]5OC(C)=O)CC[C@@H]34)[C@@]2(C)C7)[C@@H]1OC(C)=O

EC50 (P388): > 10 µg/mL
Structure (SMILES): CC(=O)O[C@@H]1[C@@H](OC(C)=O)[C@H](C)O[C@H](OC/C=C2\CC[C@H]3[C@@H]4CC[C@H]5Cc6nc7c(nc6C[C@]5(C)[C@H]4[C@@H](O)C[C@]23C)C[C@@H]2CC[C@@H]3[C@H]([C@@H](O)C[C@]4(C)/C(=C/CO[C@H]5O[C@@H](C)[C@H](OC(C)=O)[C@@H](OC(C)=O)[C@H]5OC(C)=O)CC[C@@H]34)[C@@]2(C)C7)[C@@H]1OC(C)=O

EC50 (P388): 5.2 µg/mL (≈ 10 µM)
Structure (SMILES): C[C@@H]1O[C@H]2OC(C)(OC/C=C3\CC[C@H]4[C@@H]5CCC6=CC(=O)CC[C@]6(C)[C@H]5[C@@H](O)C[C@]34C)O[C@@H]2[C@H](O)[C@H]1O (stereo partly specified)

GI50 (MCF7): 1.3 µg/mL (≈ 1.98 µM) | GI50 (BXPC-3): 1.3 µg/mL (≈ 1.98 µM) | GI50 (DU-145): 1.8 µg/mL (≈ 2.74 µM) | EC50 (P388): 1.5 µg/mL (≈ 2.28 µM) | GI50 (NCI-H460): 2.2 µg/mL (≈ 3.35 µM)
Structure (SMILES): C[C@]12Cc3nc4c(nc3C[C@@H]1CC[C@@H]1[C@@H]2[C@@H](O)C[C@]2(C)/C(=C/CO)CC[C@@H]12)C[C@@]1(C)[C@@H](CC[C@@H]2[C@@H]1[C@@H](O)C[C@]1(C)/C(=C/CO)CC[C@@H]21)C4
GI50 (SF-268): 1.7 µg/mL (≈ 2.59 µM) | Activity (Candida albicans): inactive | Activity (Enterobacter cloacae): inactive | Activity (Neisseria gonorrhoeae): inactive | Activity (Cryptococcus neoformans): inactive | Activity (Enterococcus faecalis [1]): inactive | Activity (Escherichia coli): inactive | Activity (Streptococcus pneumoniae): inactive | Activity (Micrococcus luteus): inactive | Activity [2]: inactive | Activity (Staphylococcus aureus): inactive | GI50 (KM-20L2): 1.7 µg/mL (≈ 2.59 µM)

GI50 (MCF7): 1.8 µg/mL (≈ 1.9 µM) | GI50 (BXPC-3): 1.8 µg/mL (≈ 1.9 µM) | GI50 (DU-145): 2 µg/mL (≈ 2.11 µM) | EC50 (P388): > 10 µg/mL | GI50 (NCI-H460): 1.8 µg/mL (≈ 1.9 µM)
Structure (SMILES): C[C@@H]1O[C@H](OC/C=C2\CC[C@H]3[C@@H]4CC[C@H]5Cc6nc7c(nc6C[C@]5(C)[C@H]4[C@@H](O)C[C@]23C)C[C@@H]2CC[C@@H]3[C@H]([C@@H](O)C[C@]4(C)/C(=C/CO[C@H]5O[C@@H](C)[C@H](O)[C@@H](O)[C@H]5O)CC[C@@H]34)[C@@]2(C)C7)[C@H](O)[C@H](O)[C@H]1O
GI50 (SF-268): 1.8 µg/mL (≈ 1.9 µM) | GI50 (KM-20L2): 1.8 µg/mL (≈ 1.9 µM)
